What was measured:
[1] = Evaluation of light fastness (compound residual rate after xenon light irradiation of ink jet image); format: physicochemical; settings: aqueous coloring compositions 1 to 8 and A to C; image on art paper, xenon light 85,000 lux, 100 hours
Description: The pigment dispersion liquid 1, a polyurethane resin (HYDRAN (registered trademark) AP-40F (manufactured by DIC Corporation)), and deionized water were mixed to produce an aqueous pigment dispersion liquid 1 having a pigment content of 10% by mass and a polyurethane resin non-volatile content of 2% by mass.
The following components were mixed to obtain a coloring composition 1.
Coloring compositions 2 to 8 were obtained in the same manner as in the above-described method, except that the pigment dispersion liquid 1 was changed to each of the pigment dispersion liquids 2 to 8.
A coloring composition A was obtained in the same manner as in the above-described method, except that the pigment dispersion liquid 1 was changed to the pigment dispersion liquid A. […]
The above-described image was irradiated with xenon light (85,000 lux) for 100 hours using a weather meter (manufactured by Atlas, Ci65), and a reflection density after the irradiation with xenon light was measured using a reflection densitometer (manufactured by X-Rite, Inc., trade name: X-Rite i1Pro). […]
A compound residual rate (%) before and after the irradiation with xenon light was calculated from the following expression, and evaluated based on the following evaluation standard. […]

[2] = Evaluation of storage stability (viscosity increase proportion after storage); format: physicochemical; settings: aqueous coloring compositions 1 to 8 and A to C; stored 7 days at 45° C., viscosity at 25° C.
Protocol: In an environment of 45° C. by an oven, the coloring compositions 1 to 8 and the coloring compositions A to C were stored for 7 days.
A viscosity of the coloring composition before and after the storage was measured, a viscosity increase proportion (Viscosity after storage−Viscosity before storage)/Viscosity before storage×100 was determined, and the evaluation was performed based on the following evaluation standard.
The viscosity of the coloring composition was measured using a viscometer RE85L (rotor: 1°34′×R24, measurement range: 0.6 to 1200 mPa·s) manufactured by TOKI-SANGYO Co., Ltd. in a state in which the temperature was adjusted to 25° C.
• A: viscosity increase proportion was 10% or less. • B: viscosity increase proportion was more than 10%.

## C. I. Pigment Green 58 [PG58]
[1]
  Evaluation of light fastness: A (compound residual rate was 80% or more)
[2]
  Evaluation of storage stability: B (viscosity increase proportion was more than 10%)

From patent US20250197642A1, “PHTHALOCYANINE PIGMENT, PHTHALOCYANINE COMPOUND, COLORING COMPOSITION, METHOD FOR PRODUCING PHTHALOCYANINE PIGMENT, AND METHOD FOR PRODUCING COLORING COMPOSITION” (FUJIFILM CORPORATION, priority 2022, published 2025)
